The text below walks through data of US20250179066A1, “ZWITTERIONIC ANTIBACTERIAL COMPOUNDS” (Hoffmann-La Roche Inc., priority 2022, published 2025).

What is called IC90 is the point of the concentration-response curve where the effect stands at 90%.

Molecules are shown by their SMILES. Counter-ions that a name gives are not always drawn.

In the assay the test system is Acinetobacter baumannii ATCC17961. Briefly: Antimicrobial susceptibility testing: 90% growth inhibitory concentration (IC90) determination. The format is cell-based. The following applies: Acinetobacter baumannii, ATCC17961, 16 h, 90% growth inhibitory concentration against Acinetobacter baumannii ATCC17961, Iso-Sensitest broth, OD 600 nm over 16 h; read-out: ATCC 17961 IC90. The procedure, abridged: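 Twofold serial dilutions (e.g. 10 to 0.0195 μM final) in Iso-Sensitest broth inoculated at ~5×10^5 CFU/mL, incubated at 35±2° C. OD600 read every minute for 16 h; IC90 is the concentration inhibiting 90% of growth during logarithmic phase.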
For the compound `Cn1c(-c2cn(-c3ccc(N)cn3)nc2C(F)(F)F)cnc1C(=O)Nc1ccc(C(=O)N2CCC(C(=O)NCCCc3cc[n+](CC(=O)O)c(CCCN)c3)CC2)c(Cl)c1` [Example 96, 2-[2-(3-aminopropyl)-4-[3-[[1-[4-[[5-[1-(5-amino-2-pyridyl)-3-(trifluoromethyl)pyrazol-4-yl]-1-methyl-imidazole-2-carbonyl]amino]-2-chloro-benzoyl]piperidine-4-carbonyl]amino]propyl]pyridin-1-ium-1-yl]acetic acid. 1:1 2,2,2-trifluoroacetic acid. 1:1 2,2,2-trifluoroacetate], the 90% effect concentration (IC90) is 1820 nM.
Then `CNc1ccc(-n2cc(-c3cnc(C(=O)Nc4ccc(C(=O)N5CCN(C(=O)[C@H]6CC[N@+](CC(=O)O)(CC7CNC7)CC6)CC5)c(Cl)c4)n3C)c(C(F)(F)F)n2)c(F)c1` [Example 176, cis-2-[1-(azetidin-3-ylmethyl)-4-[4-[2-chloro-4-[[5-[1-[2-fluoro-4-(methylamino)phenyl]-3-(trifluoromethyl)pyrazol-4-yl]-1-methyl-imidazole-2-carbonyl]amino]benzoyl]piperazine-1-carbonyl]piperidin-1-ium-1-yl]acetic acid. 1:1 formate], with 88.1 nM; and `Cn1c(-c2cn(-c3ccc(N4CCOCC4)cc3F)nc2C(F)(F)F)cnc1C(=O)Nc1ccc(C(=O)N2CCN(C(=O)[C@H]3CC[N@@+](CCCN)(CC(=O)O)CC3)CC2)c(Cl)c1` [Example 100, cis-2-[1-(3-aminopropyl)-4-[4-[2-chloro-4-[[5-[1-(2-fluoro-4-morpholino-phenyl)-3-(trifluoromethyl)pyrazol-4-yl]-1-methyl-imidazole-2-carbonyl]amino]benzoyl]piperazine-1-carbonyl]piperidin-1-ium-1-yl]acetic acid;formate], with 195 nM; and `Cn1c(-c2cn(-c3cc4c(ccn4CCO)cn3)nc2C(F)(F)F)cnc1C(=O)Nc1ccc(C(=O)N2CCN(C(=O)[C@H]3CC[N@+](CC(=O)O)(CC4CNC4)CC3)CC2)c(Cl)c1` [Example 174, cis-2-[1-(azetidin-3-ylmethyl)-4-[4-[2-chloro-4-[[5-[1-[1-(2-hydroxyethyl)pyrrolo[3,2-c]pyridin-6-yl]-3-(trifluoromethyl)pyrazol-4-yl]-1-methyl-imidazole-2-carbonyl]amino]benzoyl]piperazine-1-carbonyl]piperidin-1-ium-1-yl]acetic acid. 1:1 2,2,2-trifluoroacetate], with 430 nM.
Regarding `CN(C)S(=O)(=O)n1c(CCO)cc2cnc(-n3cc(-c4cnc(C(=O)Nc5ccc(C(=O)N6CCN(C(=O)[C@H]7CC[N@+](CC(=O)O)(CC8CNC8)CC7)CC6)c(Cl)c5)n4C)c(C(F)(F)F)n3)cc21` [Example 158, cis-2-[1-(azetidin-3-ylmethyl)-4-[4-[2-chloro-4-[[5-[1-[1-(dimethylsulfamoyl)-2-(2-hydroxyethyl)pyrrolo[3,2-c]pyridin-6-yl]-3-(trifluoromethyl)pyrazol-4-yl]-1-methyl-imidazole-2-carbonyl]amino]benzoyl]piperazine-1-carbonyl]piperidin-1-ium-1-yl]acetic acid;formate], the 90% effect concentration (IC90) stood at 783 nM.
Then `Cn1c(-c2cn(-c3nc4ccccc4s3)nc2C(F)(F)F)cnc1C(=O)Nc1ccc(C(=O)N2CCN(C(=O)C3CC[N+](CC(=O)O)(CC4CNC4)CC3)CC2)c(Cl)c1` (centres unmarked) [Example 80, 2-[1-(azetidin-3-ylmethyl)-4-[4-[4-[[5-[1-(1,3-benzothiazol-2-yl)-3-(trifluoromethyl)pyrazol-4-yl]-1-methyl-imidazole-2-carbonyl]amino]-2-chloro-benzoyl]piperazine-1-carbonyl]piperidin-1-ium-1-yl]acetic acid. 1:1 formate], with 1200 nM; and `Cn1c(-c2cn(-c3n[nH]c4ccccc34)nc2C(F)(F)F)cnc1C(=O)Nc1ccc(C(=O)N2CCN(C(=O)C3CC[N+](CC(=O)O)(CC4CNC4)CC3)CC2)c(Cl)c1` (centres unmarked) [Example 62, 2-[1-(azetidin-3-ylmethyl)-4-[4-[2-chloro-4-[[5-[1-(1H-indazol-3-yl)-3-(trifluoromethyl)pyrazol-4-yl]-1-methyl-imidazole-2-carbonyl]amino]benzoyl]piperazine-1-carbonyl]piperidin-1-ium-1-yl]acetic acid;formate], with 680 nM.
Then `Cc1cc(NC(=O)c2ncc(-c3cn(-c4ccc5[nH]c(CCO)cc5n4)nc3C(F)(F)F)n2C)ccc1C(=O)N1CCN(C(=O)[C@H]2CC[N@@+](CCCN)(CC(=O)O)CC2)CC1` [Example 127, cis-2-[1-(3-aminopropyl)-4-[4-[4-[[5-[1-[2-(2-hydroxyethyl)-1H-pyrrolo[3,2-b]pyridin-5-yl]-3-(trifluoromethyl)pyrazol-4-yl]-1-methyl-imidazole-2-carbonyl]amino]-2-methyl-benzoyl]piperazine-1-carbonyl]piperidin-1-ium-1-yl]acetic acid. 1:1 2,2,2-trifluoroacetate], with 364 nM.
To `Cn1c(-c2cn(-c3cc4[nH]c(C(=O)N5CCSCC5)cc4cn3)nc2C(F)(F)F)cnc1C(=O)Nc1ccc(C(=O)N2CCN(C(=O)[C@H]3CC[N@+](CC(=O)O)(CC4CNC4)CC3)CC2)c(Cl)c1` [Example 122, cis-2-[1-(azetidin-3-ylmethyl)-4-[4-[2-chloro-4-[[1-methyl-5-[1-[2-(thiomorpholine-4-carbonyl)-1H-pyrrolo[3,2-c]pyridin-6-yl]-3-(trifluoromethyl)pyrazol-4-yl]imidazole-2-carbonyl]amino]benzoyl]piperazine-1-carbonyl]piperidin-1-ium-1-yl]acetic acid. 1:1 2,2,2-trifluoroacetate] belongs 235 nM; to `Cn1c(-c2cn(-c3cc4[nH]c(CCO)cc4cn3)nc2C(F)(F)F)cnc1C(=O)Nc1ccc(C(=O)N2CCN(C(=O)[C@H]3CC[N@+](CC(=O)O)(CC4CNC4)CC3)CC2)c(Cl)c1` [Example 154, cis-2-[1-(azetidin-3-ylmethyl)-4-[4-[2-chloro-4-[[5-[1-[2-(2-hydroxyethyl)-1H-pyrrolo[3,2-c]pyridin-6-yl]-3-(trifluoromethyl)pyrazol-4-yl]-1-methyl-imidazole-2-carbonyl]amino]benzoyl]piperazine-1-carbonyl]piperidin-1-ium-1-yl]acetic acid;formate], 172 nM.
For `Cn1c(-c2cn(-c3cc4[nH]c(CCN)cc4cn3)nc2C(F)(F)F)cnc1C(=O)Nc1ccc(C(=O)N2CCN(C(=O)[C@H]3CC[N@+](CC(=O)O)(CC4CNC4)CC3)CC2)c(Cl)c1` [Example 142, cis-2-[4-[4-[4-[[5-[1-[2-(2-aminoethyl)-1H-pyrrolo[3,2-c]pyridin-6-yl]-3-(trifluoromethyl)pyrazol-4-yl]-1-methyl-imidazole-2-carbonyl]amino]-2-chloro-benzoyl]piperazine-1-carbonyl]-1-(azetidin-3-ylmethyl)piperidin-1-ium-1-yl]acetic acid;formate], the IC90 turned out to be 69.5 nM.
